Data published in patent US3968129A, “Azidophenol amine compounds and therapeutic compositions” (Boehringer Mannheim G.m.b.H., priority 1974, dated 1976).

Key:
in vivo = conditions: iv; for LD50: mouse, i.v. into tail vein within 5 seconds, dosage at which 50% of the mice die, read-out: Acute Toxicity LD50 Mouse; for therapeutic index (LD50/DE250): ratio of LD50 (mouse i.v.) to DE250 (wake rabbit i.v.)
Description: (§1) The following tests were carried out to determine the cardiac β-receptor blocking activity and the acute toxicity of certain compounds representative of the invention, as well as of a conventional comparison compound.
In another series of tests, the acute toxicity in mice of the test compounds by intravenous administration was determined as a measure of the tolerance (calculated as LD50 = dosage at which 50% of the mice die). The substances were injected, within a time period of 5 seconds, in dissolved form into the tail vein of 5 male and 5 female mice each, in increasing dosages. From the results (percentage of dead animals) at the various dosages, the mean lethal dosage was ascertained graphically or by way of programmed test analysis.
The results of both series of tests are set forth in the table below which contains, in addition, a calculated value expressing the ratio of LD50 : DE250 for each test compound.

cardiac β-receptor = assay: Cardiac β-receptor blocking activity: inhibition of isoprenalin-induced heart frequency increase (tachycardia) in wake rabbits; type: in vivo; conditions: wake rabbit; for Blocking of Isoprenalin Tachycardia in wake rabbits: Heartbeat Frequency x±sx: isoprenalin 1 μg/kg i.v. 30 min after infusion; for DE250: interpolated dosage which limits the frequency increase to 250 beats/min
Description: as §1
The cardiac β-receptor blocking activity of the test compounds was evaluated by determination of the inhibition of isoprenalin-induced heart frequency increase in wake rabbits. This type of inhibition is a typical property of β-receptor blocking bio catalysts.
The tests were carried out on rabbits weighing between 2 to 3.5 kg settled in wooden cages with EKG-electrodes inserted into the hind-quarters s.c. The heart frequency was read via an integrator (15 seconds) as a digital value. The substances to be tested were infused through a small tube to the ear vein of the rabbits over a period of 15 minutes 30 minutes after completion of the infusion, isoprenalin (1 μg/kg) was intravenously injected. The results were set forth in terms of the reduction of the heartbeat increase induced by isoprenalin and a value (DE250) calculated as the dosage required to limit such increase to 250 heart beats/min.

SMILES	LD50 (in vivo) [mg/kg]	Blocking of Isoprenalin Tachycardia in wake rabbits: Heartbeat Frequency x±sx (cardiac β-receptor; dosage 0.5 mg/kg i.v.) [Beats/minute]	Blocking of Isoprenalin Tachycardia in wake rabbits: Heartbeat Frequency x±sx (cardiac β-receptor; dosage 1.0 mg/kg i.v.) [Beats/minute]	Blocking of Isoprenalin Tachycardia in wake rabbits: Heartbeat Frequency x±sx (cardiac β-receptor; dosage 2.0 mg/kg i.v.) [Beats/minute]	Blocking of Isoprenalin Tachycardia in wake rabbits: Heartbeat Frequency x±sx (cardiac β-receptor; dosage 5.0 mg/kg i.v.) [Beats/minute]	Blocking of Isoprenalin Tachycardia in wake rabbits: Heartbeat Frequency x±sx (cardiac β-receptor; dosage 10.0 mg/kg i.v.) [Beats/minute]	Blocking of Isoprenalin Tachycardia in wake rabbits: Heartbeat Frequency x±sx (cardiac β-receptor; dosage 20.0 mg/kg i.v.) [Beats/minute]	DE250 (cardiac β-receptor) [mg/kg i.v.]	therapeutic index (LD50/DE250) (in vivo)	Blocking of Isoprenalin Tachycardia in wake rabbits: Heartbeat Frequency x±sx (cardiac β-receptor; dosage 0.01 mg/kg i.v.) [Beats/minute]	Blocking of Isoprenalin Tachycardia in wake rabbits: Heartbeat Frequency x±sx (cardiac β-receptor; dosage 0.1 mg/kg i.v.) [Beats/minute]	Blocking of Isoprenalin Tachycardia in wake rabbits: Heartbeat Frequency x±sx (cardiac β-receptor; dosage printed "10" mg/kg i.v. (Compound 3 line)) [Beats/minute]
CC(=O)Nc1ccc(OCC(O)CNC(C)C)cc1 (stereo not shown) [Comparison Compound A, 4-[2-hydroxy-3-isopropylaminopropoxy]acetanilide, reference compound]	69	307± 7	264± 9	250± 4	246± 7	217± 4	225± 6	2.5	–	–	–	–
CC(C)NCC(O)COc1ccccc1N=[N+]=[N-] (stereo not shown) [Compound 1, 2-(2-Hydroxy-3-isopropylaminopropoxy)-azidobenzene]	25	250± 5	236±11	–	223± 6	–	–	0.3	80	288± 8	252±10	–
CC(C)NCC(O)COc1cccc(N=[N+]=[N-])c1 (stereo not shown) [Compound 2, 3-(2-Hydroxy-3-isopropylaminopropoxy)-azidobenzene]	50	282± 9	258±10	–	205± 9	–	–	1.3	40	–	–	–
CC(C)(C)NCC(O)COc1cccc(N=[N+]=[N-])c1 (stereo not shown) [Compound 3, 3-(2-Hydroxy-3-tert.-butylaminopropoxy)-azidobenzene]	50	256±10	–	222± 6	235±10	–	–	0.8	60	–	317±10	244± 8
CC(C)(C)NCC(O)COc1ccccc1N=[N+]=[N-] (stereo not shown) [Compound 4, 2-(2-Hydroxy-3-tert.-butylaminopropoxy)-azidobenzene]	29	237± 7	246± 6	–	245±14	–	–	0.5	58	–	282± 5	–
